Measurements reported in patent US20100098654A1.

Columns and labels:
[1] = system: human neuroblastoma cells (GI-LI-N); assay: Orthotopic human neuroblastoma (GI-LI-N) xenografted mice; format: in vivo, mouse (human tumor xenograft)
Method: Xenograft tumors were established in mice by injecting human neuroblastoma cells (GI-LI-N) in the adrenal gland.
Five-week-old female athymic nude (nu/nu) mice were randomly assigned to each test group (8 mice per group). Eight mice/group were anaesthetised and injected with the human NB cell line, GI-LI-N (1×10^6 cells in 15 μl of HEPES buffer), after laparatomy, in the capsule of the left adrenal gland. Mice were monitored at least two times weekly for evidence of tumor development, quantification of tumor size, and evidence of tumor-associated morbidity. […] Control group received HEPES-buffered saline. The body weight and general physical status of the animals was observed daily and any mouse was terminated when a tumor reached 1000-1200 mm^3. Survival time was used as the criteria for determining treatment efficacy.
Tumors were removed from orthotopic neuroblastoma-bearing mice at day 50. Tumor sections were immunostained for NB84 as a neuroblastoma cell marker, and Ki-67 as a tumor cell proliferation marker. Cell nuclei were stained with DAPI.
Control group received HEPES-buffered saline.

[2] = system: human neuroblastoma cells NXS2; assay: NXS2 xenografted mice, survival; format: in vivo; conditions: NXS2 in A/J mice
Method: Xenograft tumors were established in immunocompetent A/J mice by injecting […] neuroblastoma cells, NXS2, in the adrenal gland.
The immunocompetent mice were injected with another […] NB cell, NXS2 of 5×10^4 cells or 5×10^5 cells in the left adrenal gland. Tumors were allowed to grow for 2 days and reached the average volume of approximately 200 mm^3. […] Control group received HEPES-buffered saline. Survival time was used as the criteria for determining treatment efficacy.

[3] = system: human neuroblastoma cells (HTLA-230); assay: Pseudometastatic human neuroblastoma (HTLA-230) xenografted mice, survival; format: in vivo; conditions: HTLA-230 i.v. in nude mice, 10 mg/kg q2d×5
Method: Xenografts were established in mice by injecting human neuroblastoma cells (HTLA-230) intravenously at zero time point.
Four-week-old female athymic nude (nu/nu) mice were purchased from Harlan Laboratories (Harlan Italy-S.Pietro al Natisone, UD). Eight mice/group were injected with the human NB cell line, HTLA-230 (3.5×10^6 cells in 200 μl of HEPES-buffered saline) in the tail vein (i.v.) on day 0. The mice were then randomly assigned to each test group (8 mice per group). […] Control group received HEPES-buffered saline. The mice were monitored routinely for weight loss. Survival times were used as the criteria for determining treatment efficacy.

[4] = GI-LI-N orthotopic (Example 27), 10 mg/kg q2d×5

CCc1c2c(nc3ccc(OC(=O)N4CCC(N5CCCCC5)CC4)cc13)-c1cc3c(c(=O)n1C2)COC(=O)[C@]3(O)CC [CPT-11]
mice surviving [1, 4]: None | time by which animals died [1, 4]: ≤ 80 days | time by which animals died ([1]; GI-LI-N orthotopic (Example 30), 10 mg/kg/dose): ≤ 80 days | mice surviving ([1]; GI-LI-N orthotopic (Example 30), 10 mg/kg/dose day 21, 23, 25, 27, 29): None | effect on survival rate ([1]; GI-LI-N orthotopic (Example 30), at MTD (40 mg/kg)): slightly improved survival rate | mice surviving ([2]; 10 mg/kg/dose q2d×5): None | mice surviving ([2]; MTD (40 mg/kg) q2d×5): None | mice surviving [3]: None | time by which animals died ([3]; from the cancer injection): ≤ 85 days
